Molecules are shown by their SMILES.

A short description of data set [1]: Calcium Liability (Tolerance Test in Mice). The note with it: for MTD: mouse, in vivo, sc; for HTD/VDR: ratio HTDsc mouse (μg/kg) / VDR act ED50 (nanomolar). The source says: 1. Calcium Liability (Tolerance Test in Mice)
This test gives a global picture of calcemic liability. Profound changes in calcium homeostasis strongly affect the weight development of the animals. This parameter was used as a primary test for tolerance. […] Body weight was registered just before and at the end of a 5 day treatment period.

The target of a further data set is T1, human VDR (Homo sapiens, UniProt P11473).
T1 construct: expressed in transfected cells; host or cells: COS cells, expression vector pSG5
T1 sequence (P11473 1-427): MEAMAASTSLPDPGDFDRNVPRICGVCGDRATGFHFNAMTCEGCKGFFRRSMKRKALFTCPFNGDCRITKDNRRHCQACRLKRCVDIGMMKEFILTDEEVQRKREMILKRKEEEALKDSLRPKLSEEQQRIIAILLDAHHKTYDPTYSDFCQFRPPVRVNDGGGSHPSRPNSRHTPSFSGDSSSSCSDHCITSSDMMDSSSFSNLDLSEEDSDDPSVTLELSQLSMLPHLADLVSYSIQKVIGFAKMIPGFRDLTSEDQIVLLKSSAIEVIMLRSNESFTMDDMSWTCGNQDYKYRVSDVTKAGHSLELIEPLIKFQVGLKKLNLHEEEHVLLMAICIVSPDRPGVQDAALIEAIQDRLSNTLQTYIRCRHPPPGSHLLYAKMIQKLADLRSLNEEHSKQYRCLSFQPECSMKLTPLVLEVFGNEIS
Briefly: VDR Activation (transcription activation assay in COS cells, luciferase reporter). It counts as cell-based. The note with it: COS cells cotransfected with human VDR and VDRE3/luciferase reporter; read-out: VDR act (ED50, nanomolar). The source says:
In order to measure the activation of the vitamin D receptor (VDR) by vitamin D analogs in cells a transcription activation assay was used. COS cells were cotransfected with the human VDR (expressed in pSG5) and a reporter gene containing three response elements (VDRE3) from the rat osteocalcine gene, the thymidine kinase basal promoter, and the luciferase reporter gene, respectively.
For orientation: A reporter such as luciferase makes a cellular process visible.

Data set [2] in a line: The Mouse Model: epidermal thickening (acanthosis) in hairless mice. The note with it: mouse, in vivo, po.
In data set [3] the test system is epidermal thickening (acanthosis) in hairless mice. The data set is described as above. The settings on record: for ED50: Mus musculus, po, read-out: ED50: dose causing half-maximal epidermal thickening; for ratio (TI) HTD/ED50: HTDpo/ED50.
Data set [4] concerns epidermal proliferation in minipigs. Briefly: animal or person. The settings on record: for minimal effective dose: Sus scrofa, 168 h, read-out: Effective dose (dose that increases the normal LI at least 50%); for minimal effective dose / Calcemic dose: po; for Calcemic dose: minipig, in vivo, 10080 min; for TI (ratio Calc./Eff.): oral, calcemic dose / effective dose. As for the experimental part: Orally administered vitamin D analogs can lead to epidermal proliferation in minipigs. This skin effect is considered as indicative for an antipsoriatic potential of vitamin D analogs. […] The pigs were daily observed as to adverse effects such as behavior, mobility, stool. At day seven bromodeoxyuridine (4 mg/kg) was injected intravenously into the treated pigs and 2 hours later skin biopsies (6 mm diameter) and blood were taken for analysis. The skin biopsies were fixed in formalin, and paraffin sections were prepared using standard procedures. Using standard immuno-histochemical techniques, cells in the S-phase (DNA synthesis phase) were labelled by the binding of a specific monoclonal antibody against the thymidine analogue bromodeoxyuridine. The number of labelled epidermal cells per unit of length along the surface was taken as a measure of epidermal proliferative activity (labelings index LI). Clinical chemistry was performed using Cobas Mira.
*The effective dose is the dose that increases the normal LI at least 50%

The next data set can be described thus: in vivo. The settings on record: mouse, po.

Usually ED50 stands for the dose at which the effect has come halfway, by size or by number of responders. Take `C=C1/C(=C\C=C\CCCC(C)(C)C/C=C/C(O)(C(F)(F)F)C(F)(F)F)C[C@@H](O)C[C@@H]1O` [C, (Z)-(1R,3S)-5-((2E,9E)-12,12,12-trifluoro-11-trifluoromethyl-11-hydroxy-7,7-dimethyl-dodec-2,9-dienylidene)-4-methylene-cyclohexane-1,3-diol]: the MTD is 0.2 mg/kg in data set [1] and 0.06 mg/kg in data set [2]. Moreover, the HTD/VDR in data set [1] came out at 50. Besides, the EC50 on human VDR was 4 nM. In data set [3], the median effective dose (ED50) is 0.45 mg/kg. In addition, the “ratio (TI) HTD/ED50” value in data set [3] (hairless mice, oral) worked out at 0.13.

Take `CC(C)(O)C#CCC(C)(C)CCC/C=C/C=C1C[C@@H](O)C[C@H](O)C1` [K, (10E)-(3R,5R)-12-(3,5-dihydroxy-cyclohexylidene)-6,6-dimethyl-2-methyl-dodec-10-en-3-yn-2-ol]: in data set [1], the MTD is more than 5 mg/kg and the HTD/VDR is more than 23. Besides, the EC50 at human VDR was found to be 220 nM.

As to `C=C1/C(=C\C=C\CCCC(C)(C)CCCC(O)(C(F)(F)F)C(F)(F)F)C[C@@H](O)C[C@@H]1O` [F, (Z)-(1R,3S)-5-[(2E)-12,12,12-trifluoro-11-hydroxy-7,7-dimethyl-11-trifluoromethyl-dodec-2-enylidene]-4-methylene-cyclohexane-1,3-diol], in data set [1], the MTD was 0.08 mg/kg and the HTD/VDR is given as 20. Moreover, the EC50 at human VDR was found to be 4 nM. In addition, in data set [4], the minimal effective dose came to 0.003 mg/kg and the Calcemic dose is 0.015 mg/kg. In data set [4] (minipigs), the “TI (ratio Calc./Eff.)” value is recorded as 5. This compound returned an MTD in data set [2] of 0.08 mg/kg. In addition, in data set [3], the ED50 stood at 0.2 mg/kg. In addition, in data set [3] (hairless mice, oral), the “ratio (TI) HTD/ED50” value turned out to be 0.4.

For the compound `CC(C)(C/C=C/C(O)(C(F)(F)F)C(F)(F)F)CCC/C=C/C=C1C[C@@H](O)C[C@H](O)C1` [D, (1R,3R)-5-[(2E,9E)-12,12,12-trifluoro-11-trifluoromethyl-11-hydroxy-7,7-dimethyl-dodeca-2,9-dienylidene]-cyclohexane-1,3-diol], in data set [1], the MTD was 0.1 mg/kg and the HTD/VDR is given as 18. Further, the EC50 on human VDR came to 5.7 nM. The MTD in data set [2] was determined as 0.05 mg/kg. Besides, the ED50 in data set [3] was 0.5 mg/kg. The “ratio (TI) HTD/ED50” value in data set [3] (hairless mice, oral) amounted to 0.1.

With `CC(C)(C/C=C\C(O)(C(F)(F)F)C(F)(F)F)CCC/C=C/C=C1C[C@@H](O)C[C@H](O)C1` [A, (1R,3R)-5-[(2E,9Z)-12,12,12-trifluoro-11-hydroxy-7,7-dimethyl-11-trifluoromethyl-dodeca-2,9-dienylidene)-cyclohexane-1,3-diol], in data set [1], the MTD turned out to be 2.5 mg/kg and the HTD/VDR came to 14. Moreover, the EC50 at human VDR is 180 nM. For the same compound, in data set [4], the minimal effective dose was determined as 0.1 mg/kg and the Calcemic dose is 5 mg/kg. In addition, in data set [4] (minipigs), the “TI (ratio Calc./Eff.)” value is recorded as 50. The MTD in data set [2] is 1 mg/kg. Besides, the ED50 in data set [3] was 7.5 mg/kg. Moreover, in data set [3] (hairless mice, oral), the “ratio (TI) HTD/ED50” value is recorded as 0.13.

Regarding `C=C1/C(=C\C=C2/CCC[C@]3(C)[C@@H]([C@H](C)CCCC(C)(C)O)CC[C@@H]23)C[C@@H](O)C[C@@H]1O` [Calcitriol, reference compound], in data set [4], the minimal effective dose was more than 0.0225 mg/kg and the Calcemic dose is 0.003 mg/kg. The “epidermal hyperproliferation (in words)” value in data set [4] (minipigs, even at 9 times the dose that induces hypercalcemia) is “did not induce hyperproliferation”. Further, in data set [3], the ED50 came to 0.5 mg/kg. For the same compound, in data set [3] (hairless mice, oral, calcitriol animals treated for three days), the “skin effects at the highest tolerated dose (in words)” value is given as “not able to elicit skin effects”.

Take `C=C1/C(=C\C=C\CCCC(C)(C)C/C=C\C(O)(C(F)(F)F)C(F)(F)F)C[C@@H](O)C[C@@H]1O` [B, (Z)-(1R,3S)-4-methylene-5-[(2E,9Z)-12,12,12-trifluoro-11-hydroxy-7,7-dimethyl-11-trifluoromethyl-dodeca-2,9-dienylidene]-cyclohexane-1,3-diol]: in data set [1], the MTD was 3 mg/kg and the HTD/VDR is recorded as 60. At human VDR, the EC50 was 50 nM. In addition, in data set [4], the minimal effective dose worked out at 1 mg/kg and the Calcemic dose was 2 mg/kg. Besides, the “TI (ratio Calc./Eff.)” value in data set [4] (minipigs) is 2. The MTD in data set [2] is 0.4 mg/kg. Moreover, the ED50 in data set [3] is 3 mg/kg. Further, in data set [3] (hairless mice, oral), the “ratio (TI) HTD/ED50” value is 0.13.

On to `C=C1/C(=C\C=C\CCCC(C)(C)CCCC(C)(C)O)C[C@@H](O)C[C@@H]1O` [G, (Z)-(1R,3S)-5-[(E)-11-hydroxy-7,7,11-trimethyl-dodec-2-enylidene]-4-methylene-cyclohexane-1,3-diol], for which, in data set [1], the MTD is more than 5 mg/kg and the HTD/VDR came out at 45. For the same compound, the EC50 on human VDR was 110 nM. In addition, the MTD in the data set “in vivo” turned out to be 20 mg/kg. Besides, in data set [3], the ED50 was determined as 60 mg/kg. In data set [3] (hairless mice, oral), the “ratio (TI) HTD/ED50” value is 0.33.

`CC(C)(O)CCCC(C)(C)CCC/C=C/C=C1C[C@@H](O)C[C@H](O)C1` [H, (2E)-(1R,3R)-5-(11-hydroxy-7,7,11-trimethyl-dodeca-2-enylidene)-cyclohexane-1,3-diol]: in data set [1], the MTD is more than 5 mg/kg and the HTD/VDR stood at 18. Moreover, the EC50 on human VDR is 280 nM.

Turning to `CC(C)(CC#CC(O)(C(F)(F)F)C(F)(F)F)CCC/C=C/C=C1C[C@@H](O)C[C@H](O)C1` [I, (E)-(1R,3R)-5-[12,12,12-trifluoro-11-hydroxy-7,7-dimethyl-11-trifluoromethyl-dodec-2-en-9-ynylidene]-cyclohexane-1,3-diol], in data set [1], the MTD was 0.333 mg/kg and the HTD/VDR was 26. In addition, the EC50 at human VDR came to 13 nM. Moreover, in data set [4], the minimal effective dose worked out at 0.036 mg/kg and the Calcemic dose is 0.2 mg/kg. Also, the “TI (ratio Calc./Eff.)” value in data set [4] (minipigs) is 6. The compound also yielded an MTD in data set [2] of 0.1 mg/kg. For the same compound, the ED50 in data set [3] turned out to be 0.8 mg/kg. For the same compound, the “ratio (TI) HTD/ED50” value in data set [3] (hairless mice, oral) stood at 0.125.

With `CC(C)(CCC/C=C/C=C1C[C@@H](O)C[C@H](O)C1)CCCC(O)(C(F)(F)F)C(F)(F)F` [Compound E, (1R,3R)-5-[(2E)-12,12,12-trifluoro-11-hydroxy-7,7-dimethyl-11-trifluoromethyl-dodec-2-enylidene)-cyclohexane-1,3-diol], in data set [1], the MTD turned out to be 0.1 mg/kg and the HTD/VDR was 15. Also, at human VDR, the EC50 amounted to 6.6 nM. In data set [2], this compound registered an MTD of 0.04 mg/kg. Further, in data set [3], the ED50 was determined as 0.2 mg/kg. In addition, in data set [3] (hairless mice, oral), the “ratio (TI) HTD/ED50” value worked out at 0.2.

Regarding `C=C1/C(=C\C=C\CCCC(C)(C)CC#CC(O)(C(F)(F)F)C(F)(F)F)C[C@@H](O)C[C@@H]1O` [J, (Z)-(1R,3S)-4-methylene-5-[(E)-12,12,12-trifluoro-11-hydroxy-7,7-dimethyl-11-trifluoromethyl-dodec-2-en-9-ynylidene]-cyclohexane-1,3-diol], in data set [1], the MTD stood at 0.31 mg/kg and the HTD/VDR is on record as 65. Besides, the EC50 on human VDR was found to be 4.8 nM. Besides, in data set [4], the minimal effective dose turned out to be 0.108 mg/kg and the Calcemic dose was more than 0.324 mg/kg. Moreover, the “TI (ratio Calc./Eff.)” value in data set [4] (minipigs) is more than 3. Besides, in data set [2], the MTD is 0.07 mg/kg. In addition, the ED50 in data set [3] was 0.7 mg/kg. In addition, in data set [3] (hairless mice, oral), the “ratio (TI) HTD/ED50” value was 0.1.

Values taken from patent publication US6184422A, “Cyclohexanediol derivatives” (priority 1998, dated 2001).
